The NIST ThermoML archive (doi:10.1016/j.jct.2018.09.009)

Key:
[1] = xn = mol fraction of the nth substance listed; settings: Liquid, isochoric method
[2] = molar heat capacity at constant volume; xn = mol fraction of the nth substance listed; settings: Liquid, Vacuum adiabatic calorimetry

C=C(F)C(F)(F)F [2,3,3,3-tetrafluoro-1-propene] + CCC
Settings	mass density [kg/m3]	molar heat capacity at constant volume [J/K/mol]
[1], 254.28 K, 1867 kPa, x1 = 0.607	969.9	–
[1], 255.92 K, 1645 kPa, x1 = 0.825	1109.8	–
[1], 256.67 K, 3513 kPa, x1 = 0.607	969.4	–
[1], 258.25 K, 3241 kPa, x1 = 0.825	1109.2	–
[1], 259.05 K, 5156 kPa, x1 = 0.607	968.9	–
[1], 260.61 K, 4872 kPa, x1 = 0.825	1108.7	–
[1], 261.41 K, 6787 kPa, x1 = 0.607	968.5	–
[1], 262.96 K, 6492 kPa, x1 = 0.825	1108.1	–
[1], 263.78 K, 8419 kPa, x1 = 0.607	968	–
[1], 265.27 K, 8092 kPa, x1 = 0.825	1107.6	–
[1], 266.11 K, 10027 kPa, x1 = 0.607	967.5	–
[1], 267.59 K, 9690 kPa, x1 = 0.825	1107	–
[1], 268.42 K, 11618 kPa, x1 = 0.607	967	–
[1], 269.9 K, 11286 kPa, x1 = 0.825	1106.5	–
[1], 270.72 K, 13214 kPa, x1 = 0.607	966.5	–
[1], 272.22 K, 12888 kPa, x1 = 0.825	1105.9	–
[1], 290.26 K, 1730 kPa, x1 = 0.521	821.2	–
[1], 292.5 K, 2803 kPa, x1 = 0.521	820.9	–
[1], 294.78 K, 3896 kPa, x1 = 0.521	820.6	–
[1], 297.13 K, 5024 kPa, x1 = 0.521	820.3	–
[1], 299.47 K, 6148 kPa, x1 = 0.521	820	–
[1], 301.86 K, 7296 kPa, x1 = 0.521	819.7	–
[1], 304.23 K, 8438 kPa, x1 = 0.521	819.4	–
[1], 306.62 K, 9582 kPa, x1 = 0.521	819.1	–
[1], 309.04 K, 10744 kPa, x1 = 0.521	818.8	–
[1], 311.5 K, 11920 kPa, x1 = 0.521	818.5	–
[1], 313.73 K, 1699 kPa, x1 = 0.285	626	–
[1], 313.86 K, 13057 kPa, x1 = 0.521	818.2	–
[1], 316.16 K, 2581 kPa, x1 = 0.285	625.9	–
[1], 318.63 K, 3477 kPa, x1 = 0.285	625.7	–
[1], 321.06 K, 4361 kPa, x1 = 0.285	625.5	–
[1], 323.51 K, 5252 kPa, x1 = 0.285	625.3	–
[1], 326.04 K, 6172 kPa, x1 = 0.285	625.1	–
[1], 328.54 K, 7079 kPa, x1 = 0.285	624.9	–
[1], 331.04 K, 7988 kPa, x1 = 0.285	624.7	–
[1], 333.51 K, 8883 kPa, x1 = 0.285	624.5	–
[1], 336.01 K, 9790 kPa, x1 = 0.285	624.3	–
[1], 338.48 K, 10686 kPa, x1 = 0.285	624.1	–
[1], 340.94 K, 11578 kPa, x1 = 0.285	624	–
[1], 343.4 K, 12468 kPa, x1 = 0.285	623.8	–
[1], 345.88 K, 13366 kPa, x1 = 0.285	623.6	–
[1], 348.3 K, 14239 kPa, x1 = 0.285	623.4	–
[2], 255.48 K, 2690 kPa, x1 = 0.607	–	81.79
[2], 257.09 K, 2443 kPa, x1 = 0.825	–	89.48
[2], 257.86 K, 4335 kPa, x1 = 0.607	–	82.48
[2], 259.43 K, 4057 kPa, x1 = 0.825	–	89.48
[2], 260.23 K, 5972 kPa, x1 = 0.607	–	82.92
[2], 261.79 K, 5682 kPa, x1 = 0.825	–	90.4
[2], 262.6 K, 7603 kPa, x1 = 0.607	–	82.74
[2], 264.12 K, 7292 kPa, x1 = 0.825	–	90.81
[2], 264.95 K, 9223 kPa, x1 = 0.607	–	83.87
[2], 266.43 K, 8891 kPa, x1 = 0.825	–	90.2
[2], 267.27 K, 10823 kPa, x1 = 0.607	–	83.61
[2], 268.75 K, 10488 kPa, x1 = 0.825	–	91.52
[2], 269.57 K, 12416 kPa, x1 = 0.607	–	84.82
[2], 271.06 K, 12087 kPa, x1 = 0.825	–	91.21
[2], 275.52 K, 2097 kPa, x1 = 0.825	–	93.05
[2], 276.02 K, 1993 kPa, x1 = 0.607	–	87.59
[2], 277.84 K, 3440 kPa, x1 = 0.825	–	93.86
[2], 278.37 K, 3320 kPa, x1 = 0.607	–	87.07
[2], 280.2 K, 4817 kPa, x1 = 0.825	–	94.67
[2], 280.75 K, 4661 kPa, x1 = 0.607	–	88.46
[2], 282.57 K, 6197 kPa, x1 = 0.825	–	95.49
[2], 283.13 K, 6012 kPa, x1 = 0.607	–	88.11
[2], 284.92 K, 7561 kPa, x1 = 0.825	–	95.18
[2], 285.51 K, 7357 kPa, x1 = 0.607	–	88.54
[2], 287.24 K, 8908 kPa, x1 = 0.825	–	95.69
[2], 287.89 K, 8694 kPa, x1 = 0.607	–	88.89
[2], 289.57 K, 10249 kPa, x1 = 0.825	–	96.1
[2], 290.27 K, 10038 kPa, x1 = 0.607	–	89.15
[2], 291.9 K, 11593 kPa, x1 = 0.825	–	97.32
[2], 292.66 K, 11390 kPa, x1 = 0.607	–	89.15
[2], 295.03 K, 12722 kPa, x1 = 0.607	–	89.41
[2], 295.93 K, 1917 kPa, x1 = 0.825	–	96.81
[2], 298.32 K, 3042 kPa, x1 = 0.825	–	97.73
[2], 300.77 K, 4193 kPa, x1 = 0.825	–	97.63
[2], 302.78 K, 1793 kPa, x1 = 0.607	–	91.49
[2], 303.23 K, 5349 kPa, x1 = 0.825	–	97.53
[2], 305.28 K, 2835 kPa, x1 = 0.607	–	91.83
[2], 305.69 K, 6504 kPa, x1 = 0.825	–	99.26
[2], 307.82 K, 3898 kPa, x1 = 0.607	–	91.4
[2], 308.14 K, 7659 kPa, x1 = 0.825	–	98.75
[2], 310.37 K, 4961 kPa, x1 = 0.607	–	92.35
[2], 310.6 K, 8808 kPa, x1 = 0.825	–	100.68
[2], 312.91 K, 6022 kPa, x1 = 0.607	–	93.48
[2], 313.06 K, 9957 kPa, x1 = 0.825	–	100.58
[2], 314.95 K, 2140 kPa, x1 = 0.285	–	84.58
[2], 315.46 K, 7086 kPa, x1 = 0.607	–	93.82
[2], 315.53 K, 11107 kPa, x1 = 0.825	–	102.31
[2], 317.06 K, 2127 kPa, x1 = 0.521	–	93.58
[2], 317.4 K, 3029 kPa, x1 = 0.285	–	85.48
[2], 318.01 K, 8150 kPa, x1 = 0.607	–	94.52
[2], 319.49 K, 2066 kPa, x1 = 0.825	–	102.21
[2], 319.6 K, 2994 kPa, x1 = 0.521	–	93.99
[2], 319.85 K, 3919 kPa, x1 = 0.285	–	86.63
[2], 320.54 K, 9207 kPa, x1 = 0.607	–	95.55
[2], 322.06 K, 2960 kPa, x1 = 0.825	–	103.02
[2], 322.15 K, 3867 kPa, x1 = 0.521	–	94.07
[2], 322.29 K, 4807 kPa, x1 = 0.285	–	87.15
[2], 323.08 K, 10263 kPa, x1 = 0.607	–	96.25
[2], 324.62 K, 3854 kPa, x1 = 0.825	–	104.35
[2], 324.7 K, 4739 kPa, x1 = 0.521	–	94.55
[2], 324.78 K, 5712 kPa, x1 = 0.285	–	87.47
[2], 325.63 K, 11326 kPa, x1 = 0.607	–	96.68
[2], 327.17 K, 4744 kPa, x1 = 0.825	–	105.16
[2], 327.23 K, 5608 kPa, x1 = 0.521	–	95.28
[2], 327.29 K, 6626 kPa, x1 = 0.285	–	87.72
[2], 329.73 K, 5637 kPa, x1 = 0.825	–	105.87
[2], 329.76 K, 6474 kPa, x1 = 0.521	–	95.44
[2], 329.79 K, 7534 kPa, x1 = 0.285	–	87.53
[2], 332.28 K, 8436 kPa, x1 = 0.285	–	87.98
[2], 332.3 K, 6534 kPa, x1 = 0.825	–	105.97
[2], 332.3 K, 7345 kPa, x1 = 0.521	–	94.79
[2], 334.76 K, 9337 kPa, x1 = 0.285	–	88.36
[2], 334.85 K, 7427 kPa, x1 = 0.825	–	106.28
[2], 334.85 K, 8221 kPa, x1 = 0.521	–	95.92
[2], 337.25 K, 10238 kPa, x1 = 0.285	–	88.81
[2], 337.4 K, 8319 kPa, x1 = 0.825	–	106.89
[2], 337.4 K, 9098 kPa, x1 = 0.521	–	96.32
[2], 339.71 K, 11132 kPa, x1 = 0.285	–	88.87
[2], 339.93 K, 9963 kPa, x1 = 0.521	–	96.24
[2], 339.94 K, 9209 kPa, x1 = 0.825	–	106.69
[2], 342.17 K, 12023 kPa, x1 = 0.285	–	89.07
[2], 342.44 K, 10822 kPa, x1 = 0.521	–	96.32
[2], 342.47 K, 10092 kPa, x1 = 0.825	–	106.89
[2], 344.64 K, 12917 kPa, x1 = 0.285	–	89.19
[2], 344.94 K, 11680 kPa, x1 = 0.521	–	96.56
[2], 345.02 K, 10985 kPa, x1 = 0.825	–	107.2
[2], 347.09 K, 13803 kPa, x1 = 0.285	–	89.32
[2], 347.44 K, 12532 kPa, x1 = 0.521	–	96.89
[2], 347.55 K, 11870 kPa, x1 = 0.825	–	106.38
